Experiments:
[1] = target: Mitogen-activated protein kinase 8 (Homo sapiens) (UniProt P45983); experiment: Inhibition of JNK1 assessed as residual activity at 10 uM using [33P-ATP] by radiometric filter binding assay
[2] = target: Serine/threonine-protein kinase PAK 5 (Homo sapiens) (UniProt Q9P286); experiment: Inhibition of PAK5 assessed as residual activity at 10 uM using [33P-ATP] by radiometric filter binding assay
[3] = Inhibition of VEGFR assessed as residual activity at 10 uM using [33P-ATP] by radiometric filter binding assay
[4] = target: Casein kinase I isoform alpha (Homo sapiens) (UniProt P48729); experiment: Inhibition of CK1 assessed as residual activity at 10 uM using [33P-ATP] by radiometric filter binding assay
[5] = target: Serine/threonine-protein kinase TAO1 (Homo sapiens) (UniProt Q7L7X3); experiment: Inhibition of TAO1 assessed as residual activity at 10 uM using [33P-ATP] by radiometric filter binding assay
[6] = target: Protein kinase C alpha type (Homo sapiens) (UniProt P17252); experiment: Inhibition of PKCalpha assessed as residual activity at 10 uM using [33P-ATP] by radiometric filter binding assay
[7] = target: Aurora kinase A (Homo sapiens) (UniProt O14965); experiment: Inhibition of aurora-A assessed as residual activity at 10 uM using [33P-ATP] by radiometric filter binding assay
Sequence of Aurora kinase A (Homo sapiens) (O14965 whole entry): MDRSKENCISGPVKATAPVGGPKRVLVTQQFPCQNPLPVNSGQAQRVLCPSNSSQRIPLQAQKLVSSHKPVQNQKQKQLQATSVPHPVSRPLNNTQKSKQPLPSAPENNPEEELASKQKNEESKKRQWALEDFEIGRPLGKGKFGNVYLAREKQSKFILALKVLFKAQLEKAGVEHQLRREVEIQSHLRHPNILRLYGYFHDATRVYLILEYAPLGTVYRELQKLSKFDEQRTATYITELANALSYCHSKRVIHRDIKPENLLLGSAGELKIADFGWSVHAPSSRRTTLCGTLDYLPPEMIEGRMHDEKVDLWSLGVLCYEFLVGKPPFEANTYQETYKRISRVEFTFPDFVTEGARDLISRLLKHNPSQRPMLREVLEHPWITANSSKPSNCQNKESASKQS

[8] = target: Calcium/calmodulin-dependent protein kinase type 1 (Homo sapiens) (UniProt Q14012); experiment: Inhibition of CAMK1 assessed as residual activity at 10 uM using [33P-ATP] by radiometric filter binding assay
Sequence of Calcium/calmodulin-dependent protein kinase type 1 (Homo sapiens) (Q14012 whole entry, looked up): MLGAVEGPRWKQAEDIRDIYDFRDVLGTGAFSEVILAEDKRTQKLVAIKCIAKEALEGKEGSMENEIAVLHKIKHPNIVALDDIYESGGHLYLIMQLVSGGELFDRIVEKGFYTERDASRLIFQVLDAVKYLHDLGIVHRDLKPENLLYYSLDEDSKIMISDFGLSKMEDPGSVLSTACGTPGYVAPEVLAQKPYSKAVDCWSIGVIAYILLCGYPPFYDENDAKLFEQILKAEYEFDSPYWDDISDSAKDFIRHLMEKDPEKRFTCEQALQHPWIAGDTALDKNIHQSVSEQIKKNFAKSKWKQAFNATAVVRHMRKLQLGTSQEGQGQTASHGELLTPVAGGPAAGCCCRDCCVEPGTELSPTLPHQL

[9] = target: Mitogen-activated protein kinase kinase kinase kinase 2 (Homo sapiens) (UniProt Q12851); experiment: Inhibition of GCK assessed as residual activity at 10 uM using [33P-ATP] by radiometric filter binding assay
[10] = target: Serine/threonine-protein kinase D1 (Homo sapiens) (UniProt Q15139); experiment: Inhibition of PKD1 assessed as residual activity at 10 uM using [33P-ATP] by radiometric filter binding assay
[11] = target: Dual specificity tyrosine-phosphorylation-regulated kinase 1A (Homo sapiens) (UniProt Q13627); experiment: Inhibition of DYRK1A assessed as residual activity at 10 uM using [33P-ATP] by radiometric filter binding assay
[12] = Inhibition of AMPK assessed as residual activity at 10 uM using [33P-ATP] by radiometric filter binding assay
[13] = target: Serine/threonine-protein kinase 3 (Homo sapiens) (UniProt Q13188); experiment: Inhibition of MST2 assessed as residual activity at 10 uM using [33P-ATP] by radiometric filter binding assay
Sequence of Serine/threonine-protein kinase 3 (Homo sapiens) (Q13188 whole entry): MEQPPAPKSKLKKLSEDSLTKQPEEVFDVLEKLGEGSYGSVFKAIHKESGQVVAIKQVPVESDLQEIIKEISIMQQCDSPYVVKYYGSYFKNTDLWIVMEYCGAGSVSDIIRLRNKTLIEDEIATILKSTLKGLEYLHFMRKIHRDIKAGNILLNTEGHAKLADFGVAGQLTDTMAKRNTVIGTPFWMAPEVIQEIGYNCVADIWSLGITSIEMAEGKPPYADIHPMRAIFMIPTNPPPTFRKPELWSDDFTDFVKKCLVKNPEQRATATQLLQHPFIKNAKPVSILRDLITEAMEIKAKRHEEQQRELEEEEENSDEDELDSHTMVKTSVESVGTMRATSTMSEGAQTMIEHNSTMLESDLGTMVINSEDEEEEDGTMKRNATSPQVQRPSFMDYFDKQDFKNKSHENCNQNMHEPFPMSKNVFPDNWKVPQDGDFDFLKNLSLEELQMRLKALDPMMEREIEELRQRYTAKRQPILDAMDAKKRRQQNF

[14] = target: Dual specificity mitogen-activated protein kinase kinase 1 (Homo sapiens) (UniProt Q02750); experiment: Inhibition of MKK1 assessed as residual activity at 10 uM using [33P-ATP] by radiometric filter binding assay
[15] = target: Mitogen-activated protein kinase 11 (Homo sapiens) (UniProt Q15759); experiment: Inhibition of p38beta MAPK assessed as residual activity at 10 uM using [33P-ATP] by radiometric filter binding assay
[16] = target: Myosin light chain kinase, smooth muscle (Homo sapiens) (UniProt Q15746); experiment: Inhibition of SmMLCK assessed as residual activity at 10 uM using [33P-ATP] by radiometric filter binding assay
[17] = target: Ribosomal protein S6 kinase alpha-1 (Homo sapiens) (UniProt Q15418); experiment: Inhibition of RSK1 assessed as residual activity at 10 uM using [33P-ATP] by radiometric filter binding assay
[18] = target: Insulin receptor (Homo sapiens) (UniProt P06213); experiment: Inhibition of IR assessed as residual activity at 10 uM using [33P-ATP] by radiometric filter binding assay
Sequence of Insulin receptor (Homo sapiens) (P06213 28-758 limits assumed): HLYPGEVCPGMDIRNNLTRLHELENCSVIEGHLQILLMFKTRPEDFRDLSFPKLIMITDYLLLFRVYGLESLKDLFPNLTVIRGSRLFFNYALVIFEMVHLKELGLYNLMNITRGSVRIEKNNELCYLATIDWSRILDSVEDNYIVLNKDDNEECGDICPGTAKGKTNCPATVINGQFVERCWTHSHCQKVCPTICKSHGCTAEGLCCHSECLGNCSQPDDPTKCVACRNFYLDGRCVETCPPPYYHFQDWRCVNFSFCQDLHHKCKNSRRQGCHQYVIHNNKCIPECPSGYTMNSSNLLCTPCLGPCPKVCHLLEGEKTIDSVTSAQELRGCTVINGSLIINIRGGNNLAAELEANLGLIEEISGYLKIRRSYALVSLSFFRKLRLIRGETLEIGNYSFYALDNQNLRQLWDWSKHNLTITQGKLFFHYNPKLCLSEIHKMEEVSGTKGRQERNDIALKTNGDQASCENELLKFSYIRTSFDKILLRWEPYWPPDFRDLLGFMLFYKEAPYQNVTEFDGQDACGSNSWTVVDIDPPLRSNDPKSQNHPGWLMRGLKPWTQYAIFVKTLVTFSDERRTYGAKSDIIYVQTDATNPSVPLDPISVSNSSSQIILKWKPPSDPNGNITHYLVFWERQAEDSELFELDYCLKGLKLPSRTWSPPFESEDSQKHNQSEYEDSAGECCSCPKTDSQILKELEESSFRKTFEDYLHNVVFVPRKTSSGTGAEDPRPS
Sequence of Insulin receptor (Homo sapiens) (P06213 763-1382 limits assumed): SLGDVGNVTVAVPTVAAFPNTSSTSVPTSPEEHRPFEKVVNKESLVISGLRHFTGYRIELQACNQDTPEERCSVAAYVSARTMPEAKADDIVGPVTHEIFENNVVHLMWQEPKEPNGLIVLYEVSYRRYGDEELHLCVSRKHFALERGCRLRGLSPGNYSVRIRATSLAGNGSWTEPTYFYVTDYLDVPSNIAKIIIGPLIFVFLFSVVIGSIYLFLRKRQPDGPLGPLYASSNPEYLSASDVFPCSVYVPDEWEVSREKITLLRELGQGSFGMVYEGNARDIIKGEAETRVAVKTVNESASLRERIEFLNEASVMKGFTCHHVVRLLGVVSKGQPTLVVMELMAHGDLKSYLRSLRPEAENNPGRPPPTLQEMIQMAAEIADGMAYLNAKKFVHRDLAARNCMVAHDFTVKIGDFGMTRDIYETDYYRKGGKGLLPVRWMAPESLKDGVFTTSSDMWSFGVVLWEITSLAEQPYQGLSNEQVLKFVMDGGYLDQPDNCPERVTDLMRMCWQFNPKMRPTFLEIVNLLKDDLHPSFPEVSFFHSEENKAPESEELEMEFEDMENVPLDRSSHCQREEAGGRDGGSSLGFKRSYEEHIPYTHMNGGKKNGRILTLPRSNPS

[19] = Inhibition of CK2 assessed as residual activity at 10 uM using [33P-ATP] by radiometric filter binding assay
[20] = target: Proto-oncogene tyrosine-protein kinase Src (Homo sapiens) (UniProt P12931); experiment: Inhibition of Src assessed as residual activity at 10 uM using [33P-ATP] by radiometric filter binding assay
Sequence of Proto-oncogene tyrosine-protein kinase Src (Homo sapiens) (P12931 2-536 limits assumed): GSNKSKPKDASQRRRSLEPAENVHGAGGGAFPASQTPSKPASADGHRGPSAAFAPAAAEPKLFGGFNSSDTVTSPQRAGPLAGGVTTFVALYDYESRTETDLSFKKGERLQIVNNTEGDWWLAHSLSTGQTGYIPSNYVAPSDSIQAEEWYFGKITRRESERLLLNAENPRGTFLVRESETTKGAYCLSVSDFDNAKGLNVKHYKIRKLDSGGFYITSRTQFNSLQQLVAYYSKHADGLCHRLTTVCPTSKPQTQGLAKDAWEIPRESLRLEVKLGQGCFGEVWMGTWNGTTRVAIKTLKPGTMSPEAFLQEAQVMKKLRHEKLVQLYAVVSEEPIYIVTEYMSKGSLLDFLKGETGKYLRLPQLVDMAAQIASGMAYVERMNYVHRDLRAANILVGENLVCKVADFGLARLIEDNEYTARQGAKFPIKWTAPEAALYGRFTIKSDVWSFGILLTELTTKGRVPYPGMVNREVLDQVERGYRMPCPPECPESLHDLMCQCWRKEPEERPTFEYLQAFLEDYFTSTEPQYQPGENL

[21] = target: Mitogen-activated protein kinase 12 (Homo sapiens) (UniProt P53778); experiment: Inhibition of p38-gamma MAPK assessed as residual activity at 10 uM using [33P-ATP] by radiometric filter binding assay
[22] = target: Tyrosine-protein kinase SYK (Homo sapiens) (UniProt P43405); experiment: Inhibition of SYK assessed as residual activity at 10 uM using [33P-ATP] by radiometric filter binding assay
[23] = target: Mitogen-activated protein kinase 14 (Homo sapiens) (UniProt Q16539); experiment: Inhibition of p38alpha MAPK assessed as residual activity at 10 uM using [33P-ATP] by radiometric filter binding assay
[24] = target: Dual specificity protein kinase TTK (Homo sapiens) (UniProt P33981); experiment: Inhibition of TTK assessed as residual activity at 10 uM using [33P-ATP] by radiometric filter binding assay
[25] = target: Cyclin-dependent kinase 2/cyclin A (Homo sapiens) (UniProt P24941+P20248+P78396); experiment: Inhibition of CDK2/Cyclin A assessed as residual activity at 10 uM using [33P-ATP] by radiometric filter binding assay; type: protein-complex assay
[26] = target: Mitogen-activated protein kinase 9 (Homo sapiens) (UniProt P45984); experiment: Inhibition of JNK2 assessed as residual activity at 10 uM using [33P-ATP] by radiometric filter binding assay
[27] = target: Serine/threonine-protein kinase Chk2 (Homo sapiens) (UniProt O96017); experiment: Inhibition of CHK2 assessed as residual activity at 10 uM using [33P-ATP] by radiometric filter binding assay
[28] = target: Serine/threonine-protein kinase MARK2 (Homo sapiens) (UniProt Q7KZI7); experiment: Inhibition of MARK2 assessed as residual activity at 10 uM using [33P-ATP] by radiometric filter binding assay
[29] = target: Angiopoietin-1 receptor (Homo sapiens) (UniProt Q02763); experiment: Inhibition of TIE2 assessed as residual activity at 10 uM using [33P-ATP] by radiometric filter binding assay
Sequence of Angiopoietin-1 receptor (Homo sapiens) (Q02763 whole entry): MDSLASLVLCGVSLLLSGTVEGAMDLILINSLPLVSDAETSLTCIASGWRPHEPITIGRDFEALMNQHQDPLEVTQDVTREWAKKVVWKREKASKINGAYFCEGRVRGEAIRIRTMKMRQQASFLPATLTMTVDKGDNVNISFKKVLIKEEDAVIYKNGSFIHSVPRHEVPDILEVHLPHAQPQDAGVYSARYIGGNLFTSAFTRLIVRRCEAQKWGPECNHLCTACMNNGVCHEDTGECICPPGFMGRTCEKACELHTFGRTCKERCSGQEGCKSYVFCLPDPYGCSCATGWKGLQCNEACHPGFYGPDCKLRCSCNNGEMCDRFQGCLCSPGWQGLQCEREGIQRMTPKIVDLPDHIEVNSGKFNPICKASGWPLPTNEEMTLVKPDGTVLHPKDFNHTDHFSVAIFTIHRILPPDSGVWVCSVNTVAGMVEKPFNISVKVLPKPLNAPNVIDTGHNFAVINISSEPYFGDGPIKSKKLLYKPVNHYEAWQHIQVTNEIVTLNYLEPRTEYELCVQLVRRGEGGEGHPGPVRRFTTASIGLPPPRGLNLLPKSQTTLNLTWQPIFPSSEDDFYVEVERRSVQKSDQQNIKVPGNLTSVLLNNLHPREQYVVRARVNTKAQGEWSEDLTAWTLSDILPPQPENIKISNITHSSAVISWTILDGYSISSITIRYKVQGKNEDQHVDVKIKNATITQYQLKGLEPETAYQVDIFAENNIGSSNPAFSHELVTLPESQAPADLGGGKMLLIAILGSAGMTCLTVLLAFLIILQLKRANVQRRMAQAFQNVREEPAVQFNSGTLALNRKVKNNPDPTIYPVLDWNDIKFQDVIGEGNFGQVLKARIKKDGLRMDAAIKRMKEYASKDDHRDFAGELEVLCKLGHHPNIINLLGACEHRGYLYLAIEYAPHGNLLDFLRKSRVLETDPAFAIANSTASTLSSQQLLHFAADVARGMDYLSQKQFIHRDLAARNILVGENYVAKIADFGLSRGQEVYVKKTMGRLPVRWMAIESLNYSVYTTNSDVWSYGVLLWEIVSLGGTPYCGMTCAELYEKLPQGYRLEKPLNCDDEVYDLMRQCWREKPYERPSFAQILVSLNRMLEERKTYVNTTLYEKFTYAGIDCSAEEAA

[30] = target: Testis-specific serine/threonine-protein kinase 1 (Homo sapiens) (UniProt Q9BXA7); experiment: Inhibition of TSSK1 assessed as residual activity at 10 uM using [33P-ATP] by radiometric filter binding assay
[31] = target: Serine/threonine-protein kinase MARK1 (Homo sapiens) (UniProt Q9P0L2); experiment: Inhibition of MARK1 assessed as residual activity at 10 uM using [33P-ATP] by radiometric filter binding assay
[32] = target: Fibroblast growth factor receptor 1 (Homo sapiens) (UniProt P11362); experiment: Inhibition of FGF-R1 assessed as residual activity at 10 uM using [33P-ATP] by radiometric filter binding assay
[33] = target: Protein-tyrosine kinase 6 (Homo sapiens) (UniProt Q13882); experiment: Inhibition of BRK assessed as residual activity at 10 uM using [33P-ATP] by radiometric filter binding assay
Sequence of Protein-tyrosine kinase 6 (Homo sapiens) (Q13882 whole entry, looked up): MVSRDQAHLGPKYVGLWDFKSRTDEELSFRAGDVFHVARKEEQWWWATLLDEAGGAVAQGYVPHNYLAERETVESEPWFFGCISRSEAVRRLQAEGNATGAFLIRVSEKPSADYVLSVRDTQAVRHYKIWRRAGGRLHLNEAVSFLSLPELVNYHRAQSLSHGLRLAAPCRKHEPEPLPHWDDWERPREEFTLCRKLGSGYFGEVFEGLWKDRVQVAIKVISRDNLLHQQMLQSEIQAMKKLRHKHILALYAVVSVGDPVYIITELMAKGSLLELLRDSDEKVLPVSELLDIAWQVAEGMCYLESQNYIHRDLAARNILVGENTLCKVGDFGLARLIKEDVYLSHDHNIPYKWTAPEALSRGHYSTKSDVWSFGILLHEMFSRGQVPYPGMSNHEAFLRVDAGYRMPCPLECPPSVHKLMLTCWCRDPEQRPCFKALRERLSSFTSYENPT

Activity [1]: 94%
Activity [2]: 92%
Activity [3]: 76%
Activity [4]: 96%
Activity [5]: 37%
Activity [6]: 112%
Activity [7]: 68%
Activity [8]: 75%
Activity [9]: 59%
Activity [10]: 63%
Activity [11]: 60%
Activity [12]: 86%
Activity [13]: 66%
Activity [14]: 29%
Activity [15]: 25%
Activity [16]: 63%
Activity [17]: 93%
Activity [18]: 83%
Activity [19]: 93%
Activity [20]: 25%
Activity [21]: 91%
Activity [22]: 76%
Activity [23]: 54%
Activity [24]: 81%
Activity [25]: 87%
Activity [26]: 88%
Activity [27]: 113%
Activity [28]: 78%
Activity [29]: 65%
Activity [30]: 75%
Activity [31]: 86%
Activity [32]: 55%
Activity [33]: 71%
SMILES: Cc1ccc(F)cc1-c1nc2[nH]nc(N)c2c2c1CCCC2

From ChEMBL document CHEMBL1926576, “Fragment based lead discovery of small molecule inhibitors for the EPHA4 receptor tyrosine kinase” (Eur J Med Chem, 2012)
